Results: patent US3933794A, “2-(2-Alkynylamino)-3H-1,4-benzodiazepines” (priority 1973, dated 1976)

Key:
Format in all cases: in vivo
[1] = test system: mice; assay: Antagonism to strychnine (as sulfate); details: Mus musculus, ip, 4 h, read-out: ED50 Str (strychnine antagonism)
Procedure: (§1) Sedative effects of the compounds of this invention are shown by the following tests in mice:
Antagonism to strychnine (as sulfate): The test consists in orally administering into groups of 6 mice the test compound, and 30 minutes later 3 mg./kg. strychnine sulfate intraperitoneally. The survivors after 4 hours reflect the activity of the compound as a muscle relaxant and antispasmodic. A dosage of 3 mg./kg. of strychnine sulfate is routinely fatal to all the control mice.

[2] = test system: mice; assay: Dish test; details: Mus musculus, ip, 0.05 h, intraperitoneal injection, 50% of mice remain in dish for more than 3 minutes, read-out: ED50 D (dish test)
Procedure: as §1
Dish test: Mice in Petri dishes (10 cm. diameter, 5 cm. high, partially embedded in wood shavings), climb out in a very short time, when not treated. Mice remaining in the dish for more than 3 minutes indicates tranquilization. ED50 equals the dose of test compound at which 50% of the mice remain in the dish.

[3] = test system: mice; assay: Nicotine antagonism test; details: Mus musculus, ip, 0.5 h, intraperitoneal injection, nicotine salicylate 2 mg./kg. 30 minutes later, (3) = death, read-out: ED50 Ni (nicotine antagonism (3) test)
Procedure: as §1
Nicotine antagonism test: Mice in a group of 6 are injected with the text compound. Thirty minutes later the mice including control (untreated) mice are injected with nicotine salicylate (2 mg./kg.). The control mice show over-stimulation, i.e., (1) running convulsions followed by (2) tonic extensor filts; followed by (3) death.

[4] = test system: mice; assay: Pedestal test; details: Mus musculus, ip, 1 min, intraperitoneal injection, mice stay on pedestal for more than 1 minute, read-out: ED50 P (pedestal test)
Procedure: as §1
Pedestal test: The untreated mouse leaves a standard pedestal in less than a minute to climb back to the floor of the standard mouse box. Tranquilized mice will stay on the pedestal for more than 1 minutes.

[5] = test system: mice; assay: Chimney test; details: Mus musculus, ip, intraperitoneal injection, 50% of mice fail to back out of glass cylinder within 30 seconds, read-out: ED50 Ch (chimney test)
Description: as §1
Chimney test: [Med. Exp. 4, 145 (1961)]: The test determines the ability of mice to back up and out of a vertical glass cylinder within 30 seconds. At the effective dosage, 50% of the mice failed doing it.

SMILES | ED50 [1] [mg/kg] | ED50 [2] [mg/kg] | ED50 [3] [mg/kg] | ED50 [4] [mg/kg] | ED50 [5] [mg/kg]
Cc1cnc2n1-c1ccc(Cl)cc1C(c1ccccc1)=NC2 [8-chloro-1-methyl-6-phenyl-4H-imidazo[1,2-a]-[1,4]benzodiazepine] | 79 | 5 | 1.8 | 28 | 25
Cc1cnc2n1-c1ccc(Cl)cc1C(c1ccccc1Cl)=NC2 [8-chloro-6-(2-chlorophenyl)-1-methyl-4H-imidazo[1,2-a][1,4]benzodiazepine] | 1.8 | 0.23 | 0.13 | 0.4 | 0.5
O=Cc1cnc2n1-c1ccc(Cl)cc1C(c1ccccc1)=NC2 [8-chloro-6-phenyl-4H-imidazo[1,2-a][1,4]benzodiazepine-1-carboxaldehyde] | 11 | 0.8 | 0.36 | 2.8 | 4
